Patent publication EP4523686A1, “A SIGMA-1 RECEPTOR POSITIVE MODULATOR FOR ITS USE IN THE PREVENTION AND THE TREATMENT OF A PATHOLOGY” (priority 2023, dated 2025)

Columns and labels:
[1] = test system: Dizocilpine-induced learning impairments in mice; test: Spontaneous alternation in the Y-maze, Dizocilpine-induced learning impairments; type: in vivo
Protocol: The Y-maze is made of grey polyvinylchloride. Each arm is 40 cm long, 13 cm high, 3 cm wide at the bottom, 10 cm wide at the top, and converging at an equal angle. Each mouse was placed at the end of one arm and allowed to move freely through the maze during an 8 min session. The series of arm entries, including possible returns into the same arm, were checked visually. An alternation is defined as entries into all three arms on consecutive occasions. The number of maximum alternations is therefore the total number of arm entries minus two and the percentage of alternation was calculated as (actual alternations / maximum alternations) × 100 (Maurice et al., 1996; Meunier et al., 2006, 2013). Exclusion criteria are locomotion < 10 or percentage of alternation < 25% or > 90%. Animals showing these readouts are excluded from the calculations. Attrition is routinely < 5% in this test.
Due to the chaperone nature of SIG-1R, a SIG-1R positive modulator behaves as an agonist in vivo, particularly on learning and memory abilities in mice (Maurice et al., 2019; Vavers et al., 2019). Convolamine was tested on Dizocilpine-induced learning impairments, a well-characterized SIG-1R-mediated response in mice (Maurice et al., 1994, 2001). The NMDA receptor noncompetitive antagonist Dizocilpine (0.15 mg/kg IP) prevented spontaneous alternation behavior (Fig. 4A) and increased mobility (Fig. 4B) in the Y-maze. […] Co-treatment with the SIG-1R antagonist NE-100 at 1 mg/kg IP, blocked the attenuating effect of Convolamine (Fig. 4C), thus confirming the SIG-1R-mediated effect.

[2] = test system: Aβ25-35-induced learning impairments in mice; test: Active avoidance in the rectangular water-maze, Aβ25-35 model of Alzheimer's disease; type: in vivo
Protocol: Amyloid-β[25-35] peptide (Aβ25-35) was from Eurogentec (Angers, France). It was solubilized in distilled water at 3 mg/ml and stored at -20°C until use. Before injection, the peptide was incubated at 37°C for 4 days, allowing oligomerization. Control injection was performed with vehicle solution (distilled water), and intracerebroventricularly (ICV) injections were done as described previously (Maurice et al., 1996, 2019).
Non-spatial long-term memory was also examined using the successive training, place-learning procedure in the rectangular water-maze (Maurice et al., 1995, 2018). The apparatus is a black Plexiglas rectangular pool (30 × 60 × 36 cm high), filled with water at a high of 25 cm. The water temperature was maintained at 23 ± 1°C. A transparent Plexiglas platform (5 × 8.5 × 0.5 cm) was fixed in the southeast corner of the pool, 1 cm below the water surface. On acquisition days 1 and 2, each mouse was placed at the middle of the west side of the pool, facing the wall, and the latency to find the platform was recorded up to 60 s. The mouse was allowed to remain on it for 20 s, and then removed from the pool into its home cage. […] Each animal was run in this manner for a total of 5 trials on day 1, and 3 trials on day 2. […] A short-term memory (STM) index was defined as the mean difference in swimming duration between trial n and trial n-1 for trials 2 to 5 and 7 to 8. The STM index was analysed vs. zero level (= no improvement). On day 4, 48 h after the last training session, animals were tested for retention. The platform was removed. Each mouse was again placed at the starting point and observed for 60 s. The latency to reach the original platform location and the time spent on the platform location was recorded.
SIG-1R acting drugs are potent neuroprotective drugs in several neurodegenerative disease indications. Moreover, Blarcamesine, the drug presently tested in a clinical phase 3 assay (NCT04314934) was identified in the pharmacological model of AD induced in mice by ICV administration of oligomerized Aβ25-35 peptide (Villard et al., 2011). […]

Kv channel = test: CEREP in vitro binding assay (pharmacological profiling)
Wfs1^ΔExon8 mice = test: Step-through passive avoidance, Wolfram syndrome mouse model; type: in vivo; details: IP 20 min before training, retention 24 h after training
Excerpt: The apparatus is a two-compartments (15 × 20 × 15 cm high) box with one illuminated with white polyvinylchloride walls and the other darkened with black polyvinylchloride walls and a grid floor. A guillotine door separates each compartment. A 60 W lamp positioned 40 cm above the apparatus lights up the white compartment during the experiment. Scrambled foot shocks (0.3 mA for 3 s) could be delivered to the grid floor using a shock generator scrambler (Lafayette Instruments, Lafayette, USA). The guillotine door was initially closed during the training session. Each mouse was placed into the white compartment. After 5 s, the door was raised. When the mouse entered the darkened compartment and placed all its paws on the grid floor, the door is closed and the foot shocks delivered for 3 s. The step-through latency (STL-Tg), that is, the latency spent to enter the darkened compartment, and the number of vocalizations were recorded. The retention test was carried out 24 h after training. Each mouse was placed again into the white compartment. After 5 s, the door was raised. The step-through latency (STL-R) was recorded up to 300 s (Meunier et al., 2006, 2013; Villard et al., 2009, 2011). An exclusion criteria was STL-Tg and STL-R < 10 s. Animals showing these readouts are excluded from the calculations. Attrition is routinely < 5% in this test.

SMILES: COc1ccc(C(=O)OC2CC3CCC(C2)N3C)cc1OC (stereo not drawn) [Convolamine, (8-methyl-8-azabicyclo[3.2.1]octan-3-yl) 3,4-dimethoxybenzoate]
- Dizocilpine-induced alternation deficit (in words) ([1]; 0.1-1 mg/kg IP range, 10 min before Dizocilpine […] IP): attenuated, dose-dependently and significantly but in a bell-shaped manner
- attenuating effect of Convolamine on alternation deficit under NE-100 co-treatment (in words) ([1]; Convolamine 1 mg/Kg IP with NE-100 at 1 mg/kg IP): blocked
- STM (short-term memory index) in Aβ25-35-treated mice (in words) ([2]; at 1 mg/kg): significantly increased
- Aβ25-35-induced decrease in number of platform location crossings (in words) ([2]; at 1 mg/kg IP): significantly attenuated
- Aβ25-35-induced increase in latency in the retention session (in words) ([2]; at 1 mg/kg IP): significantly attenuated
- inhibition at 0.1 µM (Kv channel; 0.1 µM, duplicates): 30.4%
- inhibition at 1 µM (Kv channel; 1 µM, duplicates): 22.7%
- inhibitions of the selective radiotracer (Kv channel; at micromolar concentrations, range given jointly for CB2, Kv, 5-HT3): 20-60%
- step-through latency deficit during retention (in words) (Wfs1^ΔExon8 mice): attenuated the deficit
